From US20180071317A1, “USE OF AGENTS THAT ALTER THE PERITUMORAL ENVIRONMENT FOR THE TREATMENT OF CANCER” (SERVICIO ANDALUZ DE SALUD, priority 2011, published 2018)

What was measured:
[1] = tested on: mononuclear cells; assay: Marker expression (immunohistochemistry) in mononuclear blood cells with SP alone or with NK1 antagonists; type: cell-based, human; settings: SP 1 μM + antagonist 1 μM; 48 h
Description: (§1) Briefly, heparinized blood from healthy donors was centrifuged so as to separate the various components thereof. Red blood cells remained at the bottom of the tube. Above them was a small white layer composed of the white blood cells and above, on top of the tube, the blood plasma. The layer of white cells was distributed in a culture plate of 24 wells by adding in each the same concentration of blood plasma from the same donor, supplemented with 1% antibiotic-antimycotic (Invitrogen). In each well, approximately 1000 cells (PHF) skin from the dermis were further added, obtained as previously described in Example 2. […] After 48 hours of incubation, cells were collected and embedded in paraffin for expression analysis by immunohistochemical techniques (as described in Example 1).
(§2) The expression of TGF molecular markers (anti-TGF 2, SAB4502956) and NF-kB (anti-NF-kB, SAB4501992) using specific antibodies against them were analyzed. All antibodies used were rabbit polyclonal antibodies obtained from Sigma Aldrich and were used at a concentration of 1/1000. All experiments were carried out sixfold.

[2] = tested on: polymorphonuclear cells; assay: Marker expression (immunohistochemistry) in polymorphonuclear blood cells with SP alone or with NK1 antagonists; type: cell-based, human; settings: SP 1 μM + antagonist 1 μM; 48 h
Description: as §1, §2

[3] = tested on: fibroblasts (PHF) co-cultured with tumor cells of human gastric adenocarcinoma (23132/87); assay: Marker expression (IHC) in PHF co-cultured with 23132/87 tumor cells; type: cell-based; settings: co-culture with 23132/87; SP 1 μM + antagonist 1 μM; 48 h;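 also: cultures grown in fresh plasma from a healthy human donor, values give the percentage of PHF fibroblasts positive for the marker, each experiment run in six replicates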
Protocol: (§3) All cultures were maintained 48 hours, following which the same cells were included in paraffin blocks for subsequent analysis of the expression of different markers by immunohistochemistry (see Example 1). The primary antibodies used to perform immunohistochemical assays and their concentration are detailed in Example 2. All experiments were carried out sixfold. Analyzed markers in fibroblast cells (stromal cells) were: TGF-α, TGF-β1, TGF-β2, TGF-β3, SPARC, MMP-3, MMP-7, MMP-9, MMP-11, MMP-13 and MMP-14.

[4] = tested on: fibroblasts (PHF) co-cultured with tumor cells of human Burkitt lymphoma (CA-46); assay: Marker expression (IHC) in PHF co-cultured with CA-46 tumor cells; type: cell-based; settings: PHF co-cultured with CA-46 + SP + NK1 antagonist;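 also: percentage of PHF fibroblasts positive for each marker, cultures grown in fresh human plasma from a healthy donor, six replicates, compared with fibroblasts cultured alone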
Protocol: as §3

[5] = tested on: fibroblasts (PHF) co-cultured with human fibrosarcoma tumor cells (HT-1080); assay: Marker expression (IHC) in PHF co-cultured with HT-1080 tumor cells; type: cell-based; settings: co-culture with HT-1080; SP 1 μM + antagonist 1 μM; 48 h;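 also: cultures grown in fresh human plasma from a healthy donor, six replicates, value is percent of fibroblasts positive for the marker, compared with fibroblasts cultured without tumor cells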
Protocol: (§4) All cultures were maintained 48 hours, following which the same cells were included in paraffin blocks for subsequent analysis of the expression of different markers by immunohistochemistry (see Example 1). […] All experiments were carried out sixfold. Analyzed markers in fibroblast cells (stromal cells) were: TGF-α, TGF-β1, TGF-β2, TGF-β3, SPARC, MMP-3, MMP-7, MMP-9, MMP-11, MMP-13 and MMP-14.

[6] = tested on: fibroblasts of tumors produced by human rhabdomyosarcoma tumor line (A-204); assay: Marker expression (IHC) in fibroblasts of tumor or peritumoral area, mouse model, A-204; type: in vivo; settings: A-204 tumors in mice, 30 mg/kg/day oral, 7 days
Protocol: In vitro tests conducted in Example 5 are now carried out in an experimental model in mice in vivo. […] Subsequently, the expression in fibroblasts tumoral and peritumoral area of molecular markers associated with progression and maintenance of tumors: TGF-α, TGF-β1, TGF-β2, TGF-β3, MMP-7, MMP-11, MMP-14 were analyzed by immunohistochemistry.
Were injected with 2×10^7 cells tumors (corresponding, in each case to each of the tumor types as specified in Table 9) in 200 of PBS subcutaneously μl. […] Mice were randomized into two groups when the tumors reached a volume of 75 mm^3 One group was treated with non-peptide receptor antagonists NK1 and the other with placebo 200μ1. […] Tumors and samples of non-neoplastic stromal areas remote from the tumor were halved, formalin fixed (4%) and then were included in paraffin blocks for analysis by immunohistochemistry.
The expression on fibroblast cells obtained in the animal model was analyzed by immunohistochemistry, of the above markers: TGF-α, TGF-β1, TGF-β2, TGF-β3, MMP-7, MMP-1 1, MMP-14MP-14. Tables 32 to 35 depict the type of label used and the average percentage of fibroblasts present in non-tumor areas, tumor and peritumoral (±SD) which were expressing the marker shown in each of the tumor types developed from of the different cell lines used. This process was realized in mice treated with non-peptide antagonists of NK1 receptor and in untreated animals (control).

[7] = tested on: fibroblasts (PHF) co-cultured with tumor cells of human endometrial carcinoma (AN3-CA); assay: Marker expression (IHC) in PHF co-cultured with AN3-CA tumor cells; type: cell-based; settings: co-culture with AN3-CA; SP 1 μM + antagonist 1 μM; 48 h;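 also: cultured in fresh healthy-donor blood plasma with added antibiotic-antimycotic, run in six replicates, values give percent of fibroblasts positive for each marker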
Protocol: as §4

CC(=O)N1CCN([C@H]2CCN(C(=O)N(C)[C@H](C)c3cc(C(F)(F)F)cc(C(F)(F)F)c3)[C@@H](c3ccc(F)cc3C)C2)CC1 [Casopitant]
0%: mononuclear cells expressing NF-kB [1] | mononuclear cells expressing TGF-β [1] | polymorphonuclear cells expressing NF-kB [2] | polymorphonuclear cells expressing TGF-β [2] | PHF cells expressing MMP-3 [3] | PHF cells expressing MMP-7 [3] | PHF cells expressing MMP-9 [3] | PHF cells expressing MMP-11 [3] | PHF cells expressing MMP-13 [3] | PHF cells expressing MMP-14 [3] | PHF cells expressing SPARC [3] | PHF cells expressing TGF-α [3] | PHF cells expressing TGF-β1 [3] | PHF cells expressing TGF-β2 [3] | PHF cells expressing TGF-β3 [3] | cells expressing MMP-3 [4] | cells expressing MMP-7 [4] | cells expressing MMP-9 [4] | cells expressing MMP-11 [4] | cells expressing MMP-13 [4] | cells expressing MMP-14 [4] | cells expressing SPARC [4] | cells expressing TGF-α [4] | cells expressing TGF-β1 [4] | cells expressing TGF-β2 [4] | cells expressing TGF-β3 [4] | PHF cells expressing MMP-3 [5] | PHF cells expressing MMP-7 [5] | PHF cells expressing MMP-9 [5] | PHF cells expressing MMP-11 [5] | PHF cells expressing MMP-13 [5] | PHF cells expressing MMP-14 [5] | PHF cells expressing SPARC [5] | PHF cells expressing TGF-α [5] | PHF cells expressing TGF-β1 [5] | PHF cells expressing TGF-β2 [5] | PHF cells expressing TGF-β3 [5] | fibroblasts expressing MMP-7 [6] | fibroblasts expressing MMP-11 [6] | fibroblasts expressing MMP-14 [6] | fibroblasts expressing TGF-α [6] | fibroblasts expressing TGF-β 1 [6] | fibroblasts expressing TGF-β 2 [6] | fibroblasts expressing TGF-β 3 [6] | PHF cells expressing MMP-3 [7] | PHF cells expressing MMP-7 [7] | PHF cells expressing MMP-9 [7] | PHF cells expressing MMP-11 [7] | PHF cells expressing MMP-13 [7] | PHF cells expressing MMP-14 [7] | PHF cells expressing SPARC [7] | PHF cells expressing TGF-α [7] | PHF cells expressing TGF-β1 [7] | PHF cells expressing TGF-β2 [7] | PHF cells expressing TGF-β3 [7]
